Measurements as given in ChEMBL document CHEMBL1201862, “PubChem BioAssay data set” (2004).
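Growth conditions: 96-well plates. Treatment: test compound, 48 hours, 5 concentrations. Analysis: linear interpolation between bracketing concentrations; unreached endpoints set to highest concentration. The concentration for 50% growth inhibition is given as GI50.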 Calls of active or inactive are those of the source. Cut-off read from the data, not from the text of the source: active = GI50 up to about 1.1 µM and inactive = higher.

Assays:
Assay in all cases: growth of human tumour cells (NCI), 48 h
[1] = system: SK-MEL-5
[2] = system: 786-0
[3] = system: DU-145
[4] = system: SNB-19
[5] = system: HL-60
[6] = system: COLO 205
[7] = system: RXF 393
[8] = system: MCF7
[9] = system: TK-10
[10] = system: SK-MEL-2
[11] = system: HOP-92
[12] = system: SN12C
[13] = system: NCI-H522
[14] = system: NCI-H226
[15] = system: HOP-62
[16] = system: A549
[17] = system: UACC-257
[18] = system: UO-31
[19] = system: BT-549
[20] = system: A498
[21] = system: M14
[22] = system: Malme-3M
[23] = system: HCC 2998
[24] = system: U-251
[25] = system: HCT-116
[26] = system: SNB-75
[27] = system: MDA-N
[28] = system: PC-3
[29] = system: UACC-62
[30] = system: MOLT-4
[31] = system: OVCAR-3
[32] = system: OVCAR-5
[33] = system: SF-268
[34] = system: KM12
[35] = system: Hs-578T
[36] = system: OVCAR-4
[37] = system: CCRF-CEM
[38] = system: RPMI-8226
[39] = system: IGROV-1
[40] = system: ACHN
[41] = system: HT-29
[42] = system: CAKI-1
[43] = system: K562
[44] = system: HCT-15
[45] = system: LOX IMVI
[46] = system: OVCAR-8
[47] = system: SK-MEL-28
[48] = system: SW-620
[49] = system: SR
[50] = system: NCI-H23
[51] = system: NCI/ADR-RES
[52] = system: SF-295
[53] = system: MDA-MB-231
[54] = system: SF-539
[55] = system: MDA-MB-435
[56] = system: NCI-H460
[57] = system: T47D
[58] = system: EKVX
[59] = system: SK-OV-3

For `CC(=O)OCC1OC(N2C(C)=C(C(C)=O)C(c3ccco3)C(C#N)=C2S)C(OC(C)=O)C(OC(C)=O)C1OC(C)=O` (stereo not given), the GI50 [1] was > 100 µM (inactive), the GI50 [2] was > 100 µM (inactive) and the GI50 [3] was > 100 µM (inactive). For the same compound, the GI50 [4] was > 100 µM (inactive), the GI50 [5] was > 100 µM (inactive) and the GI50 [6] was > 100 µM (inactive). The GI50 [7] was > 100 µM (inactive), the GI50 [8] was > 100 µM (inactive) and the GI50 [9] was > 100 µM (inactive). For the same compound, the GI50 [10] was > 100 µM (inactive), the GI50 [11] was > 100 µM (inactive) and the GI50 [12] was > 100 µM (inactive). The GI50 [13] was > 100 µM (inactive), the GI50 [14] was > 100 µM (inactive) and the GI50 [15] was > 100 µM (inactive). For the same compound, the GI50 [16] was > 100 µM (inactive), the GI50 [17] was > 100 µM (inactive) and the GI50 [18] was 81.1 µM (inactive). The GI50 [19] was > 100 µM (inactive), the GI50 [20] was > 100 µM (inactive) and the GI50 [21] was > 100 µM (inactive). The GI50 [22] was > 100 µM (inactive), the GI50 [23] was > 100 µM (inactive) and the GI50 [24] was > 100 µM (inactive). The GI50 [25] was > 100 µM (inactive), the GI50 [26] was > 100 µM (inactive) and the GI50 [27] was > 100 µM (inactive). The GI50 [28] was > 100 µM (inactive), the GI50 [29] was > 100 µM (inactive) and the GI50 [30] was > 100 µM (inactive). The GI50 [31] was > 100 µM (inactive), the GI50 [32] was > 100 µM (inactive) and the GI50 [33] was > 100 µM (inactive). The GI50 [34] was > 100 µM (inactive), the GI50 [35] was > 100 µM (inactive) and the GI50 [36] was > 100 µM (inactive). The GI50 [37] was > 100 µM (inactive), the GI50 [38] was > 100 µM (inactive) and the GI50 [39] was > 100 µM (inactive). The GI50 [40] was > 100 µM (inactive), the GI50 [41] was > 100 µM (inactive) and the GI50 [42] was > 100 µM (inactive). The GI50 [43] was > 100 µM (inactive), the GI50 [44] was greater than 100 µM and the GI50 [45] was > 100 µM (inactive). For the same compound, the GI50 [46] was > 100 µM (inactive), the GI50 [47] was > 100 µM (inactive) and the GI50 [48] was > 100 µM (inactive). The GI50 [49] was 95.3 µM (inactive), the GI50 [50] was > 100 µM (inactive) and the GI50 [51] was > 100 µM (inactive). For the same compound, the GI50 [52] was > 100 µM (inactive), the GI50 [53] was > 100 µM (inactive) and the GI50 [54] was > 100 µM (inactive). The GI50 [55] was > 100 µM (inactive), the GI50 [56] was > 100 µM (inactive) and the GI50 [57] was 78.7 µM (inactive).
For `NS(=O)(=O)c1ccc(/N=N/c2ccc(O)cc2)cc1`, the GI50 [1] was 28.8 µM (inactive), the GI50 [2] was > 100 µM (inactive) and the GI50 [3] was 49.7 µM (inactive). For the same compound, the GI50 [4] was 83.2 µM (inactive), the GI50 [5] was 30.1 µM (inactive) and the GI50 [6] was 46.3 µM (inactive). For the same compound, the GI50 [7] was > 100 µM (inactive), the GI50 [8] was 39.4 µM (inactive) and the GI50 [9] was > 100 µM (inactive). For the same compound, the GI50 [10] was 32.7 µM (inactive), the GI50 [11] was 75.3 µM (inactive) and the GI50 [12] was 64 µM (inactive). The GI50 [13] was 33.7 µM (inactive), the GI50 [14] was 19.3 µM (inactive) and the GI50 [15] was 92 µM (inactive). The GI50 [16] was 28.3 µM (inactive), the GI50 [17] was 51.2 µM (inactive) and the GI50 [18] was 12.6 µM (inactive). For the same compound, the GI50 [19] was 10.5 µM (inactive), the GI50 [20] was > 100 µM (inactive) and the GI50 [21] was 33.2 µM (inactive). The GI50 [22] was > 100 µM (inactive), the GI50 [23] was > 100 µM (inactive) and the GI50 [24] was 61 µM (inactive). The GI50 [25] was 37.3 µM (inactive), the GI50 [58] was 20.7 µM (inactive) and the GI50 [26] was 19.1 µM (inactive). The GI50 [27] was 61.9 µM (inactive), the GI50 [28] was 66.7 µM (inactive) and the GI50 [30] was 4.25 µM (inactive). For the same compound, the GI50 [31] was 66.4 µM (inactive), the GI50 [32] was > 100 µM (inactive) and the GI50 [33] was 53.6 µM (inactive). The GI50 [34] was 18.6 µM (inactive), the GI50 [35] was 61.8 µM (inactive) and the GI50 [36] was 43.4 µM (inactive). The GI50 [37] was 62.1 µM (inactive), the GI50 [38] was 26.5 µM (inactive) and the GI50 [59] was > 100 µM (inactive). For the same compound, the GI50 [39] was 70 µM (inactive), the GI50 [40] was 31.8 µM (inactive) and the GI50 [41] was 50.2 µM (inactive). For the same compound, the GI50 [42] was 20.9 µM (inactive), the GI50 [43] was 7.46 µM (inactive) and the GI50 [44] was 59.2 µM. The GI50 [45] was 6.61 µM (inactive), the GI50 [46] was 45.3 µM (inactive) and the GI50 [47] was 21.4 µM (inactive). The GI50 [48] was 44.5 µM (inactive), the GI50 [49] was 7.13 µM (inactive) and the GI50 [50] was 55.6 µM (inactive). For the same compound, the GI50 [51] was 26.8 µM (inactive), the GI50 [52] was 29.9 µM (inactive) and the GI50 [53] was 64.3 µM (inactive). For the same compound, the GI50 [54] was 31.9 µM (inactive), the GI50 [55] was 11.3 µM (inactive) and the GI50 [56] was 31.1 µM (inactive). The GI50 [57] was 31.3 µM (inactive).
